Earlier results in patent publication US7196076B2, “Androgen receptor modulators and methods of use thereof” (Merck & Co., Inc., priority 2001, dated 2007).
Structures can show the parent of a compound that is named as a salt.

Tests used:
[1] = median of 22 months of treatment
[2] = after 7 years of treatment

Row | Compound | reduction in nonvertebral fractures [1] | reduction in spine fractures [1] | increase in spinal BMD [2]
1 | hPTH(1–34): human parathyroid hormone 1–34 fragment (SVSEIQLMHNLGKHLNSMERVEWLRKKLQDVHNF; Parathyroid hormone; UniProt P01270 32-65, looked up, fragment) | 54% | ≥ 65% | 
2 | NCCCC(O)(P(=O)(O)O)P(=O)(O)O [alendronate, 4-amino-1-hydroxybutylidene-1,1-bisphosphonic acid monosodium salt, trihydrate] |  |  | 11%
